From US12377080B2, “Allosteric EGFR inhibitors and methods of use thereof” (Dana-Farber Cancer Institute, Inc., priority 2019, dated 2025)
pIC50: −log10 of the molar value.

Tests used:
EGFR L858R = EGFR L858R (Homo sapiens (Human), UniProt P00533, L858R); test: HTRF-based EGFR biochemical assay (L858R); settings: 100 μM ATP
Description: (§1) EGFR biochemical activity measurements were carried out using the homogeneous time-resolved fluorescence (HTRF) assay (Cisbio). Inhibitors and DMSO normalizations were first dispensed to empty black low-volume 384-well plates (Corning) with D300 digital liquid dispenser (HP). All reactions were carried out at room temperature and solutions were added to plates with a Multidrop Combi Reagent Dispenser (ThermoFisher). The reaction mixture (10 μL final volume) contained 1 μM tyrosine kinase peptide-biotin substrate and mutant EGFR in a reaction buffer (50 mM HEPES pH 7,0, 5 mM MgCl2,1 mM MnCl2, 0.01% BSA, 2 mM TCEP, 0.1 mM NaVO4). Enzyme concentrations were adjusted to accommodate varying kinase activities (L858R 0.1 nM, L858R!T790M 0,02 nM). Enzyme reaction solution (2× concentrations, 5 μL) was added to 384-well plates containing compounds and incubated for 30 mins. Enzyme reactions were initiated with the addition of […] of ATP to a final concentration of 100 μM and reacted for 20 mins. Reactions were quenched with the addition of 10 μL of phospho-tyrosine antibody-Europium(III) cryptate (1-to-180 volume ratio) and Streptavidin-XL665 (46.7 nM) in EDTA-containing detection buffer, then incubated at room temperature for 1 hour, and read with a PHERAstar plate reader (excitation =337 nm, emission =620 nm and 665 nm).

EGFR L858R/T790M = EGFR L858R/T790M (Homo sapiens (Human), UniProt P00533, L858R/T790M); test: HTRF-based EGFR biochemical assay (L858R/T790M); settings: 100 μM ATP
EGFR L858R/T790M, sequence (P00533 25-1210 T790M/L858R): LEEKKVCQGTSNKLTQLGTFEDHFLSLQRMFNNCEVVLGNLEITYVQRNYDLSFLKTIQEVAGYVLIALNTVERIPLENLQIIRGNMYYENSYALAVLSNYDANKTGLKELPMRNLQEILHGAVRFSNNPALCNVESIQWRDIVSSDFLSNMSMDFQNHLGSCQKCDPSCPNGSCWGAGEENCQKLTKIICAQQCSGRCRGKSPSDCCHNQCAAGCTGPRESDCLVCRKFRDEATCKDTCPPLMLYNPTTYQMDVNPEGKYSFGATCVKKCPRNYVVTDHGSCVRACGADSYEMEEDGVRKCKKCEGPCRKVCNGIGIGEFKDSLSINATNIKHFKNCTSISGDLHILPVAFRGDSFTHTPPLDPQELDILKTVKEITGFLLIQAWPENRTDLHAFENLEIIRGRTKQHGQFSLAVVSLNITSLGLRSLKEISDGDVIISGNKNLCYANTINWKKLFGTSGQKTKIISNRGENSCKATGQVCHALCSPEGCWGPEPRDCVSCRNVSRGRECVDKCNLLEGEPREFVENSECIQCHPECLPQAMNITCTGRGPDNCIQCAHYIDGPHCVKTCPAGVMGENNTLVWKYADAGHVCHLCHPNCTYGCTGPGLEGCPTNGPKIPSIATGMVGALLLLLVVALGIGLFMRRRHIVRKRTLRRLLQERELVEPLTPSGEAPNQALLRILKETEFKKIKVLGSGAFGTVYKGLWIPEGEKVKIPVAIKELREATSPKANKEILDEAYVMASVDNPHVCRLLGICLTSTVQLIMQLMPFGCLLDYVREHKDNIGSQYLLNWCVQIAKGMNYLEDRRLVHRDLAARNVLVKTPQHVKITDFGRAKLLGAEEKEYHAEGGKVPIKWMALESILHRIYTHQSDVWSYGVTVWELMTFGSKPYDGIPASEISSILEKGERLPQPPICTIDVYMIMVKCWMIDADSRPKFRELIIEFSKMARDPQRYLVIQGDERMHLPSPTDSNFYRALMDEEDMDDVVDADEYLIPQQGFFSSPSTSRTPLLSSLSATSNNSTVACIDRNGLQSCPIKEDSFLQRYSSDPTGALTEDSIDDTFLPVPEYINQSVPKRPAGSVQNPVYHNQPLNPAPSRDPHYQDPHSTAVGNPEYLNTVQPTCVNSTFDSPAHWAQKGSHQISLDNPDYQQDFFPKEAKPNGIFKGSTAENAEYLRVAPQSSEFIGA
Description: as §1

[1] = tested on: EGFR L858R/T790M mutant Ba/F3 Cells; test: Ba/F3 cell proliferation (Cell Titer Glo) in combination with cetuximab; assay type: cell-based, murine; settings: 72 hours
Excerpt: The EGFR mutant L858R, Del E746_A750, L858R/T790M, Del E746_A750/T790M, L858R/T790MIC797S, and DellT790MIC797S Ba/F3 cells have been previously described (Zhou, W., et al, Nature 462, 2009, 1070-1074). All cell lines were maintained in RPM I 1640 (Cellgro; Mediatech Inc., Herndon, CA) supplemented with 10% FBS, 100 units/mL penicillin, 100 units/mL streptomycin. The EGFR 1941 R mutation was introduced via site directed mutagenesis using the Quick Change Site-Directed Mutagenesis kit (Stratagene; La Jolla, CA) according to the manufacturer's instructions. All constructs were confirmed by DNA sequencing. The constructs were shuttled into the retroviral vector JP1540 using the Cre-recombination system (Agilent Technologies, Santa Clara, CA). Ba/F3 cells were then infected with retrovirus per standard protocols, as described previously (Zhou, et al, Nature 2009). Stable clones were obtained by selection in puromycin (2 μg/ml),
Growth and inhibition of growth was assessed by the Cell Titer Glo assay (Promega, Madison, WI) and was performed according to the manufacturer's instructions. The Cell Titer Glo assay is a luminescence-based method used to determine the number of viable cells based on quantitation of the ATP present, which is directly proportional to the amount of metabolically active cells present. Ba/F3 cells of different EGFR genotypes were exposed to compounds as a single agent or in combination with […] for 72 hours and the number of cells used per experiment was determined empirically as has been previously established (Zhou, et al., Nature 2009). All experimental points were set up in triplicates in 384-well plates and all experiments were repeated at least three times. […] The curves were fitted using a non-linear regression model with a sigmoidal dose response.

EGFR L858R, sequence (P00533 25-1210 L858R): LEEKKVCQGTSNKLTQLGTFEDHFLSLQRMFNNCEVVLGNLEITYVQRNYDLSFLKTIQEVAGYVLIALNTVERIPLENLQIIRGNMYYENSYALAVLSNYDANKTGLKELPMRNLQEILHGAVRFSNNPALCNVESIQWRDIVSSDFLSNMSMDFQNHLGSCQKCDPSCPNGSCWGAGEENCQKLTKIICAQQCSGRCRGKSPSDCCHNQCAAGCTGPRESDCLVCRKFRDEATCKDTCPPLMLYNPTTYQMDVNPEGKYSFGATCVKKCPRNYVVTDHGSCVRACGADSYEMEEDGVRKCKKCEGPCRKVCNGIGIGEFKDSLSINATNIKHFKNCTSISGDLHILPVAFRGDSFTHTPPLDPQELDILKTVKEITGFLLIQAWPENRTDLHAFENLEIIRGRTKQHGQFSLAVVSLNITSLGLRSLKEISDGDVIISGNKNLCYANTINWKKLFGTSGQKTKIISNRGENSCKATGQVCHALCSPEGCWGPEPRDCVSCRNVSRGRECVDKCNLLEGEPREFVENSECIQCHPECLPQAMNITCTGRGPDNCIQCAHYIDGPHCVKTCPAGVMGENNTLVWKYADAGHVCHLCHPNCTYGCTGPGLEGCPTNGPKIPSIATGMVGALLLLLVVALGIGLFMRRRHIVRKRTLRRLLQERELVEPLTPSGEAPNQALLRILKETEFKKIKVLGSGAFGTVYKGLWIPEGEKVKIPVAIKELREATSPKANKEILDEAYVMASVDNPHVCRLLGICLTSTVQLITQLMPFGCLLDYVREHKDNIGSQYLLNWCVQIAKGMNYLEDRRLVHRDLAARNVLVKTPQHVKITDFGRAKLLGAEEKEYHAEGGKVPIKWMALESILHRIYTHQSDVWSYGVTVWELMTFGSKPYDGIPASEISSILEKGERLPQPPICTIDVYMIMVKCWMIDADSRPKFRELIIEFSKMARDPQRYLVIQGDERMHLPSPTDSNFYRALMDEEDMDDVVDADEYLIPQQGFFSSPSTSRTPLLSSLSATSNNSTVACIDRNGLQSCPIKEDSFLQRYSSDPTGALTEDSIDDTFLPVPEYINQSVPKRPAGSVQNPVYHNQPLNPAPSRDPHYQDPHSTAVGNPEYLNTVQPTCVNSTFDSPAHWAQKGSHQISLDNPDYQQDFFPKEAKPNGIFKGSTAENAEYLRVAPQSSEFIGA

Row | pIC50 (EGFR L858R) | pIC50 (EGFR L858R/T790M) | pIC50 [1] | Compound
1 | 7.34 | 8.40 | 7.00 | CN1CCN(c2ccc(-c3cnc4c(c3)C(=O)N(C(C(=O)Nc3nccs3)c3cccc(F)c3)C4)cc2)CC1 (centres unmarked) [Compound 10, 2-(3-fluorophenyl)-2-(3-(4-(4-methylpiperazin-1-yl)phenyl)-5-oxo-5,7-dihydro-6H-pyrrolo-[3,4-b]pyridin-6-yl)-N-(thiazol-2-yl)acetamide]
2 | 8.30 | 9.00 | 7.70 | CN1CCC(c2ccc(-c3ccc4c(n3)C(=O)N(C(C(=O)Nc3nccs3)c3cccc(F)c3)C4)cc2F)CC1 (centres unmarked) [Compound 20, 2-(2-(3-fluoro-4-(1-methyl-piperidin-4-yl)phenyl)-7-oxo-5,7-dihydro-6H-pyrrolo[3,4-b]pyridin-6-yl)-2-(3-fluoro-phenyl)-N-(thiazol-2-yl)-acetamide]
3 |  |  | 6.42 | O=C(Nc1nccs1)C(c1cccc(F)c1)N1Cc2ncc(Br)cc2C1=O (centres unmarked) [Compound 2, 2-(3-bromo-5-oxo-5,7-dihydro-6H-pyrrolo[3,4-b]pyridin-6-yl)-2-(3-fluorophenyl)-N-(thiazol-2-yl)acetamide]
4 | 7.70 | 9.00 | 6.70 | CN1CCN(c2ccc(-c3cnc4c(c3)C(=O)N(C(C(=O)Nc3nccs3)c3cccc(F)c3)C4)cn2)CC1 (centres unmarked) [Compound 8, 2-(3-fluorophenyl)-2-(3-(6-(4-methylpiperazin-1-yl)pyridin-3-yl)-5-oxo-5,7-dihydro-6H-pyrrolo[3,4-b]pyridin-6-yl)-N-(thiazol-2-yl)acetamide]
5 | 8.40 | 9.40 | 8.00 | CN1CCC(c2ccc(-c3ccc4c(n3)C(=O)N(C(C(=O)Nc3ccccn3)c3cc(F)ccc3O)C4)cc2)CC1 (centres unmarked) [Compound 21, 2-(5-fluoro-2-hydroxyphenyl)-2-(2-(4-(1-methylpiperidin-4-yl)phenyl)-7-oxo-5,7-dihydro-6H-pyrrolo[3,4-b]pyridin-6-yl)-N-(pyridin-2-yl)acetamide]
6 |  |  | 5.63 | O=C(Nc1ccccn1)C(c1cccc(F)c1)N1Cc2ncc(Br)cc2C1=O (centres unmarked) [Compound 3, 2-(3-bromo-5-oxo-5,7-dihydro-6H-pyrrolo[3,4-b]pyridin-6-yl)-2-(3-fluorophenyl)-N-(pyridin-2-yl)acetamide]
7 | 8.40 | 9.15 | 7.52 | CN1CCC(c2ccc(-c3ccc4c(n3)C(=O)N(C(C(=O)Nc3nccs3)c3cccc(F)c3)C4)c(F)c2)CC1 (centres unmarked) [Compound 19, 2-(2-(2-fluoro-4-(1-methyl-piperidin-4-yl)phenyl)-7-oxo-5,7-dihydro-6H-pyrrolo[3,4-b]pyridin-6-yl)-2-(3-fluoro-phenyl)-N-(thiazol-2-yl)-acetamide]
8 | 7.49 | 8.40 | 6.92 | CN1CCN(c2ccc(-c3ccc4c(n3)C(=O)N(C(C(=O)Nc3nccs3)c3cccc(F)c3)C4)cc2)CC1 (centres unmarked) [Compound 14, 2-(3-fluorophenyl)-2-(2-(4-(4-methylpiperazin-1-yl)phenyl)-7-oxo-5,7-dihydro-6H-pyrrolo-[3,4-b]pyridin-6-yl)-N-(thiazol-2-yl)acetamide]
9 | 8.22 | 9.00 | 7.40 | CN1CCC(c2ccc(-c3ccc4c(n3)C(=O)N(C(C(=O)Nc3nccs3)c3cccc(F)c3)C4)cc2)C1 (centres unmarked) [Compound 16, 2-(3-fluorophenyl)-2-(2-(4-(1-methylpyrrolidin-3-yl)phenyl)-7-oxo-5,7-dihydro-6H-pyrrolo-[3,4-b]pyridin-6-yl)-N-(thiazol-2-yl)acetamide]
10 | 7.44 | 8.15 | 6.85 | CN1CCC(c2ccc(-c3ccc4c(n3)C(=O)N(C(C(=O)Nc3nccs3)c3cccc(F)c3)C4)cn2)CC1 (centres unmarked) [Compound 17, 2-(3-fluorophenyl)-2-(2-(6-(1-methylpiperidin-4-yl)pyridin-3-yl)-7-oxo-5,7-dihydro-6H-pyrrolo[3,4-b]pyridin-6-yl)-N-(thiazol-2-yl)acetamide]
11 | 8.30 | 9.00 | 8.00 | CN1CCC(c2ccc(-c3cnc4c(c3)C(=O)N(C(C(=O)Nc3nccs3)c3cccc(F)c3)C4)cc2)CC1 (centres unmarked) [Compound 9, 2-(3-fluorophenyl)-2-(3-(4-(1-methylpiperidin-4-yl)phenyl)-5-oxo-5,7-dihydro-6H-pyrrolo-[3,4-b]pyridin-6-yl)-N-(thiazol-2-yl)acetamide]
12 |  |  | < 5.00 | O=C(Nc1ccccn1)C(c1cccc(F)c1)N1Cc2ccc(Br)nc2C1=O (centres unmarked) [Compound 5, 2-(2-bromo-7-oxo-5,7-dihydro-6H-pyrrolo[3,4-b]pyridin-6-yl)-2-(3-fluorophenyl)-N-(pyridin-2-yl)acetamide]
13 | 7.08 | 8.22 | 6.48 | CN1CCN(c2ccc(-c3ccc4c(n3)C(=O)N(C(C(=O)Nc3nccs3)c3cccc(F)c3)C4)cn2)CC1 (centres unmarked) [Compound 15, 2-(3-fluorophenyl)-2-(2-(6-(4-methylpiperazin-1-yl)pyridin-3-yl)-7-oxo-5,7-dihydro-6H-pyrrolo[3,4-b]pyridin-6-yl)-N-(thiazol-2-yl)acetamide]
14 | 8.15 | 9.00 | 7.70 | CN1CCC(c2ccc(-c3ccc4c(n3)C(=O)N(C(C(=O)Nc3nccs3)c3cccc(F)c3)C4)cc2)CC1 (centres unmarked) [Compound 13, 2-(3-fluorophenyl)-2-(2-(4-(1-methylpiperidin-4-yl)phenyl)-7-oxo-5,7-dihydro-6H-pyrrolo-[3,4-b]pyridin-6-yl)-N-(thiazol-2-yl)acetamide]
15 | 6.52 | 8.00 | 6.32 | CN1CCN(c2ccc(-c3cc4c(cn3)CN(C(C(=O)Nc3nccs3)c3cccc(F)c3)C4=O)cc2)CC1 (centres unmarked) [Compound 7, 2-(3-fluorophenyl)-2-(6-(4-(4-methylpiperazin-1-yl)phenyl)-1-oxo-1,3-dihydro-2H-pyrrolo-[3,4-c]pyridin-2-yl)-N-(thiazol-2-yl)acetamide]
16 | 7.22 | 8.22 | 6.89 | CN1CCC(c2ccc(-c3cc4c(cn3)CN(C(C(=O)Nc3nccs3)c3cccc(F)c3)C4=O)cc2)CC1 (centres unmarked) [Compound 6, 2-(3-fluorophenyl)-2-(6-(4-(1-methylpiperidin-4-yl)phenyl)-1-oxo-1,3-dihydro-2H-pyrrolo-[3,4-c]pyridin-2-yl)-N-(thiazol-2-yl)acetamide]
17 | 8.30 | 9.00 | 7.52 | CN1CCC(c2ccc(-c3cnc4c(c3)C(=O)N(C(C(=O)Nc3ccccn3)c3cc(F)ccc3O)C4)cc2)CC1 (centres unmarked) [Compound 22, 2-(5-fluoro-2-hydroxyphenyl)-2-(3-(4-(1-methylpiperidin-4-yl)phenyl)-5-oxo-5,7-dihydro-6H-pyrrolo[3,4-b]pyridin-6-yl)-N-(pyridin-2-yl)acetamide]
18 | 7.57 | 8.52 | 7.30 | CN1CCC(c2ccc(-c3cnc4c(c3)C(=O)N(C(C(=O)Nc3nccs3)c3cccc(F)c3)C4)cc2)C1 (centres unmarked) [Compound 11, 2-(3-fluorophenyl)-2-(3-(4-(1-methylpyrrolidin-3-yl)phenyl)-5-oxo-5,7-dihydro-6H-pyrrolo-[3,4-b]pyridin-6-yl)-N-(thiazol-2-yl)acetamide]
19 |  |  | 5.26 | O=C(Nc1nccs1)C(c1cccc(F)c1)N1Cc2cnc(Br)cc2C1=O (centres unmarked) [Compound 1, 2-(6-bromo-1-oxo-1,3-dihydro-2H-pyrrolo[3,4-c]pyridin-2-yl)-2-(3-fluorophenyl)-N-(thiazol-2-yl)acetamide]
20 |  |  | 5.75 | O=C(Nc1nccs1)C(c1cccc(F)c1)N1Cc2ccc(Br)nc2C1=O (centres unmarked) [Compound 4, 2-(2-bromo-7-oxo-5,7-dihydro-6H-pyrrolo[3,4-b]pyridin-6-yl)-2-(3-fluorophenyl)-N-(thiazol-2-yl)acetamide]
